Legend:
[1] = Water solubility of salicylic acid by UV-VIS: loaded in γCD-MOF, without additive, or with γCD and KOH; assay type: physicochemical
Protocol: The dry, loaded CD-MOF samples were then dissolved in 10 mL water and stirred.
All water solubility shown in FIGS. 2-4 below were measured at room temperature.

[2] = cited from earlier work
[3] = 30% loading (150 mg salicylic acid) in a 500 mg γCD-MOF sample, room temperature, FIG. 3 curve 20
[4] = added directly into a solution containing equivalent amounts of γCD and KOH (500 mg sample), room temperature, FIG. 3 curve 22
[5] = un-complexed salicylic acid in the absence of a CD-MOF, room temperature, FIG. 3 curve 21

Structure (SMILES) | percentage of solubilized salicylic acid in 10 mL of water compared with no additive ([1]; 100 mg CD-MOF sample, loading percentage range of about 25-500%, FIG. 2 curve 10 vs curve 11) | amount of salicylic acid solubilized in 10 mL of water (maximum reached) ([1]; 500 mg CD-MOF sample used as intermediate, room temperature, FIG. 4 curve 31) | percentage of solubilized salicylic acid in 10 mL of water compared with no additive and with γCD and KOH ([1]; 500 mg CD-MOF sample, loading percentage 10-100%, FIG. 3 curve 20 vs curves 21 and 22) | amount of salicylic acid solubilized in 10 mL of water [1, 3] | percentage of solubilized salicylic acid in 10 mL of water [1, 3] | maximum amount of salicylic acid dissolved in 10 mL of water ([1]; absence of any additive, room temperature, FIG. 4 curve 33) | amount of salicylic acid solubilized in 10 mL of water [1, 4] | percentage of solubilized salicylic acid in 10 mL of water [1, 4] | amount of salicylic acid solubilized in 10 mL of water [1, 5] | percentage of solubilized salicylic acid in 10 mL of water [1, 5] | solubility in water [2]
O=C(O)c1ccccc1O [salicylic acid] | higher | up to 110 mg | significantly higher | about 103 mg | about 69% | about 20 mg | about 58.5 mg | approximately 39% | about 20 mg | approximately 13% | –
OC[C@H]1O[C@@H]2O[C@H]3[C@H](O)[C@@H](O)[C@@H](O[C@H]4[C@H](O)[C@@H](O)[C@@H](O[C@H]5[C@H](O)[C@@H](O)[C@@H](O[C@H]6[C@H](O)[C@@H](O)[C@@H](O[C@H]7[C@H](O)[C@@H](O)[C@@H](O[C@H]1[C@H](O)[C@H]2O)O[C@@H]7CO)O[C@@H]6CO)O[C@@H]5CO)O[C@@H]4CO)O[C@@H]3CO [α-CD, α cyclodextrin] | – | – | – | – | – | – | – | – | – | – | about 145 mg/mL
